Values after ≈ are worked out from the molar mass of the structure shown. Where two headings read alike, the source gives them in different places.
Key:
[1] = n-octanol-water partition coefficient (logP), shake flask method; assay type: physicochemical
[2] = pKa / pKB by potentiometric acid-base titration and formation constant log(KS); settings: for Log(KS) formation constant: calculated from pKA of acid and pKB of base
Experimental: Determination of formation constant pKs
Zabrze, Poland). For the measurement of pKA acids, 0.1 M NaOH was used. In order to
ester hydrochloride, HCl aqueous solution, was added in an amount that allowed reach-
After that, an acid-base titration was made out by adding dropwise 5 mM

Escherichia coli = test: Disc diffusion antimicrobial susceptibility test, Escherichia coli; assay type: cell-based; parameters: key to Inhibition diameter: -: no growth of the organism
Experimental: (§1) The plates were incubated for 24 h at 37 °C.

[3] = tested on: Staphylococcus epidermidis; test: Disc diffusion antimicrobial susceptibility test, Staphylococcus epidermidis; assay type: cell-based; parameters: key to Inhibition diameter: -: no growth of the organism
Experimental: as §1

Micrococcus Luteus = test: Disc diffusion antimicrobial susceptibility test, Micrococcus luteus; assay type: cell-based; parameters: key to Inhibition diameter: -: no growth of the organism
physchem = test: physchem
Source text: This study aims to compare the influence of amino acid structure on the physicochemical properties of NSAID salts with the isopropyl ester of amino acids.

[4] = DTG; cited from earlier work
[5] = Thermogravimetric analysis (thermal stability)
Experimental: The thermal stabilities of the obtained NSAIDs isopropyl ester amino acid salts were investigated. […] The beginning of thermal degradation was evaluated based on the value of onset of the TG curve, which occurs in the first phase of the process. […]
Thermogravimetric analysis (TG)
Thermogravimetric analysis was carried out using Netzsch Proteus Thermal Analy- […]
Samples of 5–8 mg were loaded in Al2O3 […]
ment was performed in an air atmosphere (25 cm3min−1) with nitrogen flow (10 cm3min−1) […]
Differential scanning calorimetry (DSC)
Phase transformation temperatures were determined on a PerkinElmer DSC-7 (Rot-gau, Germany). The samples of 3–5 mg were loaded on the aluminum pan with a crimped lid. Measurements were carried out in a nitrogen atmosphere (20 cm3 min-1). The rate of heating/cooling was 5°C min-1. […]
tained for 30 min inside the furnace, then cooled to 0°C to condition the sample and the crucible. After that, heating was conducted to the specified temperature, followed by cool-ing. Unless otherwise stated, two complete cycles of heating and cooling were performed.
The specified maximum temperature was individual for each compound, determined from TG analysis, and it was at least 10°C lower than the onset decomposition tempera-ture. Temperatures reported from DSC data are curve peaks, the melting points being endothermic upon heating and crystallization point being exothermic upon cooling. Lead, indium, tin, and zinc were used as standards to calibrate the temperature. Indium was used for enthalpy measurement calibration. […]

[6] = solution transferred to disc 25 mg cm^−3
[7] = solution transferred to disc 50 mg cm^−3
[8] = solution transferred to disc 100 mg cm^−3
[9] = solution transferred to disc 200 mg cm^−3
[10] = solution transferred to disc 400 mg cm^−3
[11] = solution transferred to disc 600 mg cm^−3
[12] = solution transferred to disc 1000 mg cm^−3
[13] = solution transferred to disc 800 mg cm^−3
[14] = Micrococcus luteus, 24 h, solution transferred to disc 400 mg cm^−3, read-out: Inhibition diameter
[15] = Micrococcus luteus, 24 h, solution transferred to disc 600 mg cm^−3, read-out: Inhibition diameter
[16] = Micrococcus luteus, 24 h, solution transferred to disc 800 mg cm^−3, read-out: Inhibition diameter

| Structure (SMILES) | Inhibition diameter (Escherichia coli; [6]) | Inhibition diameter (Escherichia coli; [7]) | Inhibition diameter (Escherichia coli; [8]) | Inhibition diameter (Escherichia coli; [9]) | Inhibition diameter (Escherichia coli; [10]) | Inhibition diameter (Escherichia coli; [11]) | Inhibition diameter (Escherichia coli; [12]) | Inhibition diameter [3, 6] | Inhibition diameter [3, 7] | Inhibition diameter [3, 8] | Inhibition diameter [3, 9] | Inhibition diameter [3, 10] | Inhibition diameter [3, 11] | Inhibition diameter [3, 13] | Inhibition diameter [3, 12] | Solubility in Phosphate Buffer pH = 5.4, as active substance (physchem) [gAS dm^−3] | Solubility in Phosphate Buffer pH = 7.4, as active substance (physchem) [gAS dm^−3] | Inhibition diameter (Micrococcus Luteus; [6]) | Inhibition diameter (Micrococcus Luteus; [7]) | Inhibition diameter (Micrococcus Luteus; [8]) | further results |
| --- | --- | --- | --- | --- | --- | --- | --- | --- | --- | --- | --- | --- | --- | --- | --- | --- | --- | --- | --- | --- | --- |
| CC(C(=O)O)c1cccc(C(=O)c2ccccc2)c1 (racemic) [KETO, (R,S)-ketoprofen, reference compound] | - | - | - | - | - | - | - | - | - | - | - | - | - | - | - |  |  |  |  |  | logP ([1]; n-octanol-water, shake flask, read-out: LogP): 1.577 ± 0.01; pKa [2]: 4.11; zone of inhibition at 25000 µg/mL (Micrococcus Luteus; Micrococcus luteus, 24 h, solution transferred to disc 25 mg cm^−3, read-out: Inhibition diameter): 8.3 ± 0.3 mm; zone of inhibition at 50000 µg/mL (Micrococcus Luteus; Micrococcus luteus, 24 h, solution transferred to disc 50 mg cm^−3, read-out: Inhibition diameter): 9.6 ± 0.2 mm; zone of inhibition at 100000 µg/mL (Micrococcus Luteus; Micrococcus luteus, 24 h, solution transferred to disc 100 mg cm^−3, read-out: Inhibition diameter): 10.2 ± 0.2 mm; zone of inhibition at 200000 µg/mL (Micrococcus Luteus; Micrococcus luteus, 24 h, solution transferred to disc 200 mg cm^−3, read-out: Inhibition diameter): 11.1 ± 0.4 mm; zone of inhibition at 400000 µg/mL (Micrococcus Luteus; [14]): 12.5 ± 0.2 mm; zone of inhibition at 600000 µg/mL (Micrococcus Luteus; [15]): 13.3 ± 0.2 mm; zone of inhibition at 800000 µg/mL (Micrococcus Luteus; [16]): 14.2 ± 0.1 mm |
| CC(C)Cc1ccc(C(C)C(=O)O)cc1.CSCCC(N)C(=O)OC(C)C (mixture of isomers) [[L-MetOiPr][IBU]] | - | 6.1 ± 0.1 mm | 6.2 ± 0.1 mm | 6.5 ± 0.2 mm | 7.1 ± 0.3 mm | 7.6 ± 0.2 mm | 8.1 ± 0.1 mm | - | - | 8.3 ± 0.1 mm | 13.6 ± 0.2 mm | 14.7 ± 0.2 mm | 15.4 ± 0.2 mm | 17.0 ± 0.2 mm | 17.7 ± 0.3 mm | 0.483 ± 0.011 | 1.752 ± 0.001 | - | 7.3 ± 0.2 mm | 8.5 ± 0.2 mm | Solubility in Phosphate Buffer pH = 5.4 (physchem): 0.932 ± 0.011 g dm^−3; Solubility in Phosphate Buffer pH = 7.4 (physchem): 3.376 ± 0.001 g dm^−3; Log(KS) formation constant [2]: 5.53; Inhibition diameter (Micrococcus Luteus; [9]): 10.4 ± 0.1 mm; Inhibition diameter (Micrococcus Luteus; [10]): 12.6 ± 0.1 mm; Inhibition diameter (Micrococcus Luteus; [11]): 14.1 ± 0.1 mm; Inhibition diameter (Micrococcus Luteus; [13]): 14.3 ± 0.1 mm; Inhibition diameter (Micrococcus Luteus; [12]): 14.6 ± 0.3 mm; TDTGmax, maximum decomposition temperature [4]: 209.9 [50] °C |
| CC(C)Cc1ccc(C(C)C(=O)O)cc1.CCC(C)C(N)C(=O)OC(C)C (mixture of isomers) [[L-IleOiPr][IBU]] | - | - | - | 6.3 ± 0.1 mm | 6.4 ± 0.3 mm | 7.1 ± 0.2 mm | 7.8 ± 0.3 mm | 7.5 ± 0.2 mm | 9.5 ± 0.4 mm | 14.4 ± 0.2 mm | 15.4 ± 0.4 mm | 17.0 ± 0.2 mm | 17.5 ± 0.1 mm | 18.0 ± 0.1 mm | 19.3 ± 0.1 mm | 0.631 ± 0.002 | 2.195 ± 0.021 | 7.2 ± 0.2 mm | 7.6 ± 0.1 mm | 8.6 ± 0.1 mm | Solubility in Phosphate Buffer pH = 5.4 (physchem): 1.161 ± 0.002 g dm^−3; Solubility in Phosphate Buffer pH = 7.4 (physchem): 4.038 ± 0.021 g dm^−3; Log(KS) formation constant [2]: 5.78; Inhibition diameter (Micrococcus Luteus; [9]): 9.4 ± 0.2 mm; Inhibition diameter (Micrococcus Luteus; [10]): 10.7 ± 0.1 mm; Inhibition diameter (Micrococcus Luteus; [11]): 11.2 ± 0.1 mm; Inhibition diameter (Micrococcus Luteus; [13]): 11.6 ± 0.1 mm; Inhibition diameter (Micrococcus Luteus; [12]): 12.3 ± 0.2 mm; TDTGmax, maximum decomposition temperature [4]: 221.9 [50] °C |
| O=C(O)c1ccccc1O [SA, salicylic acid, reference compound] | - | - | - |  |  |  |  | - | - | - | - |  |  |  |  | 3.862 ± 0.005 | 5.757 ± 0.024 | - | - | - | Solubility in Water, as active substance (physchem): 3.795 ± 0.004 gAS dm^−3; solubility thermodynamic (physchem; pH 5.4, aqueous buffer): 3862 ± 5 µg/mL (≈ 28 mM); solubility thermodynamic (physchem; pH 7.4, aqueous buffer): 5757 ± 24 µg/mL (≈ 41.7 mM); solubility thermodynamic (physchem; water): 3795 ± 4 µg/mL (≈ 27.5 mM); logP [1]: 1.32 ± 0.018; TTGonset, the onset of the thermal degradation [5]: 146.2 °C; TDTGmax, maximum decomposition temperature ([5]; DTG, air atmosphere, 10 °C min−1): 198.8 °C; zone of inhibition at 200000 µg/mL (Escherichia coli; Escherichia coli, 24 h, solution transferred to disc 200 mg cm^−3, read-out: Inhibition diameter): 6.1 ± 0.1 mm; zone of inhibition at 400000 µg/mL (Escherichia coli; Escherichia coli, 24 h, solution transferred to disc 400 mg cm^−3, read-out: Inhibition diameter): 6.4 ± 0.1 mm; zone of inhibition at 600000 µg/mL (Escherichia coli; Escherichia coli, 24 h, solution transferred to disc 600 mg cm^−3, read-out: Inhibition diameter): 11 ± 0.8 mm; concentration from which the inhibitory effect was observed ([3]; S. epidermidis): ≥ 400 mg cm^−3; zone of inhibition at 400000 µg/mL ([3]; Staphylococcus epidermidis, 24 h, solution transferred to disc 400 mg cm^−3, read-out: Inhibition diameter): 6.2 ± 0.1 mm; zone of inhibition at 600000 µg/mL ([3]; Staphylococcus epidermidis, 24 h, solution transferred to disc 600 mg cm^−3, read-out: Inhibition diameter): 7 ± 0.2 mm; zone of inhibition at 800000 µg/mL ([3]; Staphylococcus epidermidis, 24 h, solution transferred to disc 800 mg cm^−3, read-out: Inhibition diameter): 8.6 ± 0.3 mm; zone of inhibition at 400000 µg/mL (Micrococcus Luteus; [14]): 7.4 ± 0.4 mm; zone of inhibition at 600000 µg/mL (Micrococcus Luteus; [15]): 8.7 ± 0.8 mm; zone of inhibition at 800000 µg/mL (Micrococcus Luteus; [16]): 9.4 ± 0.8 mm; Inhibition diameter (Micrococcus Luteus; [9]): - |

From article PMC9693575, “Isopropyl Amino Acid Esters Ionic Liquids as Vehicles for Non-Steroidal Anti-Inflammatory Drugs in Potential Topical Drug Delivery Systems with Antimicrobial Activity” (International Journal of Molecular Sciences, 2022)
